One data set concerns IR F497A. The data set is described as follows: Auto-phosphorylation of IR in 293FT cells expressing IR F497A. The format is cell-based, human. The procedure: (§1) For the activation assay, the short isoform of human IR in pCS2-MYC was used as described previously[20],[49]. Plasmid transfections into 293FT cells were performed with Lipofectamin^TM 2000 (Invitrogen).
(§2) The cells were incubated with the lysis buffer B [50 mM Hepes pH 7.4, 150 mM NaCl, 10% Glycerol, 1% Triton X-100, 1 mM EDTA, 100 mM sodium fluoride, 2 mM sodium orthovanadate, 20 mM sodium pyrophosphate, 0.5 mM dithiothreitol (DTT), 2 mM phenylmethylsulfonyl fluoride (PMSF)] supplemented with cOmplete Protease Inhibitor Cocktail (Roche), PhosSTOP (Sigma), and 25 U/ml turbo nuclease (Accelagen) on ice for 1 h. After centrifuging at 20,817×g at 4 °C for 10 min, the concentrations of cell lysate were measured using Micro BCA Protein Assay Kit (Thermo Scientific). About 50–60 μg total proteins were analyzed by SDS-PAGE and quantitative Western blotting. […] For quantitative western blots, anti-rabbit immunoglobulin G (IgG) (H + L) (WB, 1:5000; Dylight 800 conjugates, Cat. #5151) and anti-mouse IgG (H + L) (WB, 1:5000; Dylight 680 conjugates, Cat. #5470) (Cell Signaling) were used as secondary antibodies. […]

The next data set has as its system IR R345A. The data set is described as follows: Auto-phosphorylation of IR in 293FT cells expressing IR R345A. The data set is classed as cell-based, human. The procedure:
as §1, §2

A short description of data set [1]: Body weight after chronic treatment, before OGTT. The format is in vivo, mouse. The procedure:
For the oral glucose tolerance test, mice were fasted for 6 h and their blood glucose levels (T = 0) were measured with tail bleeding using a glucometer (AlphaTRAK). After then, glucose (2 g/kg body weight) was administered by oral gavage. Blood glucose levels were measured at the indicated time points after glucose administration. For Fig. S10f, 2 months old male mice were fasted for 14 h. […] One hour later, livers were collected.

For the next data set, the system named is IR R14A. The data set is described as follows: Auto-phosphorylation of IR in 293FT cells expressing IR R14A. The format is cell-based, human. The procedure:
as §1, §2

For another data set, the system named is IR-D707A. The data set is described as follows: IR signaling (pY IR, pAKT, pERK) in IR-D707A MEFs. The format is cell-based, mouse. The procedure: IR^F/F mice (Jackson #006955[71]) were crossed with CAG-CRE/ERT mice (Jackson #004682) to generate IR^F/F; CRE-ERT mice. The IR^F/F; CRE-ERT mice were backcrossed nine generations to C57BL/6 (Jackson #000664). The MEFs from IR^F/F; CRE-ERT mice were isolated as described earlier with some modifications. E14.5 embryos were minced with sterile scalpels and incubated with 0.25% trypsin-EDTA for 10 min at 37 °C and a 5% CO2 incubator. Fresh 0.25% trypsin-EDTA was added. After 10 min incubation, cells were put into fresh DMEM containing supplemented 10% (v/v) FBS, 2 mM L-glutamine, 55 μM β-mercaptoethanol, and 1% penicillin/streptomycin, and then centrifuged at 290×g for 5 min. After the supernatant was removed, the cells were resuspended in the DMEM and incubated at 37 °C and 5% CO2 incubator. The medium was changed the next day to remove debris and floating cells.
Viral supernatants were collected at 2 days and 3 days after transfection, concentrated with a concentrator, and added to IR^F/F; CRE-ERT MEFs with 4 μg/ml of polybrene. Cells were selected with 2 μg/ml of puromycin 2 days after infection.
as §1
The cells were incubated with the lysis buffer B [50 mM Hepes pH 7.4, 150 mM NaCl, 10% Glycerol, 1% Triton X-100, 1 mM EDTA, 100 mM sodium fluoride, 2 mM sodium orthovanadate, 20 mM sodium pyrophosphate, 0.5 mM dithiothreitol (DTT), 2 mM phenylmethylsulfonyl fluoride (PMSF)] supplemented with cOmplete Protease Inhibitor Cocktail (Roche), PhosSTOP (Sigma), and 25 U/ml turbo nuclease (Accelagen) on ice for 1 h. After centrifuging at 20,817×g at 4 °C for 10 min, the concentrations of cell lysate were measured using Micro BCA Protein Assay Kit (Thermo Scientific). About 50–60 μg total proteins were analyzed by SDS-PAGE and quantitative Western blotting. The following antibodies were purchased from commercial sources: Anti-IR-pY1150/1151 (WB, 1:1000; 19H6; labeled as pY IR, Cat. #3024), anti-AKT (WB, 1:1000; 40D4, Cat. #2920), anti-pS473 AKT (WB, 1:1000; D9E, Cat. #4060), anti-ERK1/2 (WB, 1:1000; L34F12, Cat. #4696), anti-pERK1/2 (WB, […]; 197G2, Cat. #4377), anti-IRS1-pS616 (WB, 1:1000; C15H5, Cell Signaling, Cat. #3203); anti-IRS1 (WB, 1:1000; A301-158A, Bethyl Laboratory); anti-IR (WB, 1:500, CT-3, Santa Cruz; labeled as IR for primary hepatocytes and MEFs, Cat. #sc-57342); anti-IR (WB, 1:1000; EPR23566-103; labeled as IR for Fig. S10, ab278100, Abcam); anti-Myc (WB, 1:2000; 9E10, Cat. #11667149001, Roche; labeled as IR for 293FT cells). For quantitative western blots, anti-rabbit immunoglobulin G (IgG) (H + L) (WB, 1:5000; Dylight 800 conjugates, Cat. #5151) and anti-mouse IgG (H + L) (WB, 1:5000; Dylight 680 conjugates, Cat. #5470) (Cell Signaling) were used as secondary antibodies. The membranes were scanned with the Odyssey Infrared Imaging System (Li-COR, Lincoln, NE).

The test system of the next data set is IR F64A. The data set is described as follows: Auto-phosphorylation of IR in 293FT cells expressing IR F64A. The data set is classed as cell-based, human. As to conditions: 10 nM, 10 min. The procedure:
as §1, §2

The test system of a further data set is IR N15K. The data set is described as follows: Auto-phosphorylation of IR in 293FT cells expressing IR N15K. The format is cell-based, human. The procedure: as §1, §2

“And” between values parts separate entries of the source, which are not always exact repeats. Identical values can stand only once.

As for “insulin: native IR ligand used as comparator; Humulin in the in vivo tests”, the IR activation entry in the data set on IR F497A was “can be activated by insulin but with lesser efficiency than IR WT”; with IR R345A, “largely diminished IR activation by insulin”; in the data set with IR R14A, “reduced insulin-dependent IR activation”; with IR F64A it was “defective insulin-dependent activation”; in the data set on IR N15K it was “reduced insulin-dependent IR activation”. For the same substance, in data set [1] (50U/kg body weight, i.p., once daily for three days, male C57BL/6J, individual mice, N = 5, listed as Ins, in g (unit assumed)), the “Body weight before OGTT” value is 19.9 and 21.6. Moreover, the “Body weight, significance” value in data set [1] (50U/kg once daily for three days, two-tailed Student's t-test) is given as “No significant”. Moreover, the “phosphorylation of AKT” value with IR-D707A is listed as “greatly reduced”. Besides, the “phosphorylation of ERK” value in the data set on IR-D707A was “greatly reduced”. Moreover, the “phosphorylation of IR” value in the data set with IR-D707A is recorded as “remarkedly reduced”. Moreover, the pAKT entry with IR-D707A (high concentration of insulin) was “significantly increased pAKT and pERK”. The pERK entry with IR-D707A (high concentration of insulin) is “significantly increased pAKT and pERK”.

Values taken from publication PMC9508239 (Nature Communications, 2022).
